# Measured values as given in patent publication US5635486A, “Ophthalmic composition comprising a sleep adjusting substance” (priority 1990, dated 1997).
# Where two headings read alike, the source gives them in different places.
# What was measured:
# [1] = into a lateral ventricle, rat; cited from earlier work
# [2] = tested on: mice; experiment: Locomotor activity of mice after instillation of ophthalmic medicament to the eye (Automex, total activity ratio per hour vs saline); type: in vivo, mouse (ICR male); settings: for time when the mice started to move / total activity ratio / locomotor activity (in words) / Total Activity ratio per hour / pain or itch in the eyes as cause of the sleep inhibition: instilled to mouse eye; for sleep inducing or inhibiting activity (in words): by instillation to mouse eye; for Total Activity ratio per hour: 19:30-20:30
# Description: Three ICR male mice were put in a cage and bred under the condition of a day-and-night cycle of every 12 hours (the daytime: from 7:35 to 19:35; the nighttime: from 19:35 to 7:35) for an experiment.
# In this manner, the mice were habituated to the instillation by administering the saline every day. After the same activity pattern appeared for two days continuously, an ophthalmic medicament containing a desired sleep adjusting substance was instilled for consecutive two days. The ophthalmic medicament was prepared by dissolving the sleep adjusting substance in saline. […] The locomotor activity (unit: count) of mice was measured every 10 minutes by using a measuring device for the locomotor activity of an experimental animal "Automex" (produced by Tokai Irika). The locomotor activity was measured by putting a mouse on the measuring device. Every time any of the mice moved, a counter of the device cumulated the number of the movements. Thus, the larger cumulated number reflected more energetic activity. Such a measurement was conducted twice (for two days). An average value of the locomotor activity at each time was calculated and the results were plotted to obtain a graph, with time as the abscissas and the average locomotor activity as the ordinates. This graph depicts an activity pattern of the mice as a function of an administration of the ophthalmic medicament. A total of the locomotor activity (i.e., an area below the curve in the graph) per one hour between 19: 30 which is 30 minutes after the administration and 20:30 was calculated. In the same manner, as for the mice with the administration of saline alone, a total locomotor activity per the same one hour period as above was calculated. The ratio (%) of the calculated total locomotor activity per one hour of the mice with saline alone to that of the mice with the administration of the ophthalmic medicament (hereinafter called the "total activity ratio") was obtained. The mice whose activity patterns were not stable during the habituation to the administration of saline were not used in the following examples.
# [3] = cited from earlier work; for sleep effect: species and route not stated
# [4] = cited from earlier work
# [5] = tested on: neurons; settings: cited from earlier work
# [6] = cited from earlier work; remark: listed apart in the source
# [7] = tested on: human; settings: cited from earlier work
# [8] = tested on: animal; settings: in an animal; cited from earlier work
# [9] = into a cerebral ventricle, rabbit; cited from earlier work
# [10] = injected into an eyeball; axonal flow; cited from earlier work
# [11] = administered into a cerebral ventricle
compound,measurement,setting,value
"Nc1ncnc2c1ncn2[C@@H]1O[C@H](CO)[C@@H](O)[C@H]1O [Adenosine, adenosine]",sleep effect,[1],induce non-REM sleep
"CCCCC[C@H](O)/C=C/[C@H]1C(=O)C[C@H](O)[C@@H]1C/C=C\CCCC(=O)O [PGD2, prostaglandin D2]",time when the mice started to move,[2]; 100 μM,shifted backward
same,total activity ratio,"[2]; 100 μM, vs saline control",78%
same,sleep effect,[3],strong sleep inducing substance
"CCCCC[C@H](O)/C=C/[C@H]1[C@H](O)CC(=O)[C@@H]1C/C=C\CCCC(=O)O [PGE2, prostaglandin E2]",sleep effect,[3],inhibits sleep
same,sleep effect,[3]; listed as prostaglandin E2,sleep inhibiting activity
"C1CCNCC1 [Piperidine, piperidine]",total activity ratio,"[2]; 100 μM, vs saline control",72%
same,sleep effect,[3],sleep inducing activity
"O=c1cc[nH]c(=O)[nH]1 [Uracil, uracil, reference compound]",locomotor activity (in words),[2]; 100 μM,did not decrease
"O=c1ccn([C@@H]2O[C@H](CO)[C@@H](O)[C@H]2O)c(=O)[nH]1 [Uridine, uridine]",sleep inducing or inhibiting activity (in words),[2]; 100 μM,showed a sleep inducing activity
same,Total Activity ratio per hour,[2]; 10 μM,63 % of control
same,Total Activity ratio per hour,[2]; 30 μM,57 % of control
same,locomotor activity (in words),[2]; 100 μM,remarkably decreased
same,time when the mice started to move,[2]; 100 μM,shifted backward
same,Total Activity ratio per hour,[2]; 100 μM,53 % of control
same,sleep effect,[4]; injection of only 10 pmole into a cerebral ventricle,induces non-REM sleep
same,excitation of the neurons,[5],induces or inhibits excitation of the neurons
Nc1ccn([C@@H]2O[C@H](CO)[C@@H](O)[C@H]2O)c(=O)n1 [cytidine],sleep inducing or inhibiting activity (in words),[2]; 100 μM,can inhibit sleep
same,locomotor activity (in words),[2]; 100 μM,completely disappeared temporarily after the instillation
same,pain or itch in the eyes as cause of the sleep inhibition,[2]; 100 μM,not caused by a pain or an itch in the eyes
same,time when the mice started to move,[2]; 100 μM,advanced
same,total activity ratio,"[2]; 100 μM, vs saline control",127%
same,arousal hours,[4]; [11],increase arousal hours
same,total sleep hours,[4]; [11],decrease total sleep hours
N[C@@H](Cc1c[nH]c2ccccc12)C(=O)O [tryptophan],effectiveness of oral administration,[6],somewhat effective
arginine vasotocin [AVT],sleep effect,[7]; in a human,REM sleep
same,amount of serotonin in the brain,[3]; mechanism of sleep induction,increasing the amount of serotonin in the brain
same,sleep effect,[8],induces non-REM sleep
delta-sleep-inducing peptide [DSIP],sleep inducing or inhibiting activity (in words),[2]; 100 μM,exerted a sleep inhibiting activity
same,pain or itch in the eyes as cause of the sleep inhibition,[2]; 100 μM,certainly not due to any pain or itch in the eyes
same,total activity ratio,[2]; 100 μM in saline containing 0.1% bovine serum albumin,130%
same,sleep effect,[9],induce sleep
same,anti-stress activity,[7]; administered to a human,anti-stress activity such as causing sleep inhibition
"horseradish peroxidase: an enzyme with a molecular weight of about 40,000, frequently used as a tracer",uptake by ganglion cells and transport to the suprachiasmatic nucleus,[10],"uptaken by the ganglion cells, and then transported to the suprachiasmatic nucleus through the axonal flow"
